Measured values as given in patent US7074761B1, “Peptides and production and use thereof” (Takeda Chemical Ind., Ltd., priority 1996, dated 2006).
Where a SMILES comes first, the peptide text is derived from it. Bridges are numbered along the chain shown (N, C = ends).

Assays:
[1] = biological target: T1, human SSTR5 (Homo sapiens, UniProt P35346); test: cAMP accumulation inhibiting activity in SSTR5 expressing CHO cells (forskolin stimulated); format: cell-based; conditions: forskolin 10 μM, CHO cells SSTR5-32-4; read-out: ED50, inhibition of intracellular cAMP accumulation, SSTR5
T1 construct: expressed in transfected cells; host or cells: CHO(dhfr-) cells, clone SSTR5-32-4, plasmid pA-1-11-SSTR5 (vector pAKKO-111)
Method: (§1) For measuring the intracellular accumulations of cyclic adenosine 3′,5′-monophosphate (cAMP), the human somatostatin receptor expressing cell lines SSTR2-HS5-9, SSTR3-15-19, SSTR4-1-2 and SSTR5-32-4 respectively described in Reference Example 2 (3), Reference Example 3 (3), Reference Example 4 (3) and Reference Example 5 (3) were multiplied on 24-well plates until confluency. Said cells were washed with two 1-ml portions of medium A [Dulbecco-'s modified Eagle's medium (DMEM), 20 mM 2-[4-(2-hydroxyethyl)-1-piperazinyl]ethanesulfonic acid (HEPES) (pH. 7.5), 0.2% BSA, 0.2 mM 3-isobutyl-1-methylxanthine (IBMX)] and then 400 μl of medium A was added to each well and incubation was carried out at 37° C. for 1 hour. To each well were added 50 μl of a hCS-15 or hCS-17 solution (each diluted to a concentration 10 times the final concentration with medium A) and 50 μl of a forskolin solution (final concentration: 10 μM), and incubation was carried out at 37° C. for 30 minutes. The cells were washed with two 1-ml portions of medium A and then 500 μl of medium A and 100 μL of 20% aqueous perchloric acid solution were added to each well, followed by standing at 4° C. for 20 minutes for cell lysis. […] The amount of cAMP contained in this extract was determined using an Amersham's kit (cAMP EIA system).

[2] = biological target: T2, human SSTR3 (Homo sapiens, UniProt P32745); test: cAMP accumulation inhibiting activity in SSTR3 expressing CHO cells (forskolin stimulated); format: cell-based; conditions: forskolin 10 μM, CHO cells SSTR3-15-19; read-out: ED50, inhibition of intracellular cAMP accumulation, SSTR3
T2 construct: expressed in transfected cells; host or cells: CHO(dhfr-) cells, clone SSTR3-15-19, plasmid pA-1-11-SSTR3 (vector pAKKO-111)
Method: as §1

[3] = biological target: T3, human SSTR1 (Homo sapiens, UniProt P30872); test: [125I]-somatostatin binding inhibition, SSTR1 CHO cell membrane fraction; conditions: 25° C., 60 minutes
T3 construct: expressed in transfected cells; host or cells: CHO(dhfr-) cells, clone SSTR1-8-3, plasmid pA-1-11-SSTR1 (vector pAKKO-111)
Method: CHO(dhfr^−) cells (1×10^6 cells) were cultured on HAM F12 medium containing 10% fetal bovine serum in a dish with a diameter of 8 cm for 24 hours. Into these cells was introduced 10 μg of the human SSTR1 cDNA expression plasmid pA-1-11-SSTR1 obtained as described above in (2) by the calcium phosphate method (Cell Phect Transfection Kit; Pharmacia). At 24 hours after transfection, the medium was exchanged for Dulbecco's modified Eagle's medium (DMEM) containing 10% dialyzed fetal bovine serum, and cells forming a colony on this medium (namely DHFR^+ cells) were selected. Further, the cells selected were treated by the limiting dilution method for cloning from a single cell, and the somatostatin receptor protein activity was measured in the following manner. […] The [^125I] on the filter paper was measured with a γ counter. […]
The membrane fractions prepared in Reference Example 6 were each diluted to 3 μg/ml with assay buffer. […] After filtration, the radioactivity of [^125I]-somatostatin remaining on the filter paper was measured. For each test substance, the binding inhibition percentage (%) was calculated according to the formula: PBM=(B−NSB)/(B0−NSB)×100 (where PBM: percent maximum binding; B: radioactivity when the test sample is added; B0: maximum bound radioactivity; NSB: non-specifically bound radioactivity). […]

T3 sequence (P30872 whole entry): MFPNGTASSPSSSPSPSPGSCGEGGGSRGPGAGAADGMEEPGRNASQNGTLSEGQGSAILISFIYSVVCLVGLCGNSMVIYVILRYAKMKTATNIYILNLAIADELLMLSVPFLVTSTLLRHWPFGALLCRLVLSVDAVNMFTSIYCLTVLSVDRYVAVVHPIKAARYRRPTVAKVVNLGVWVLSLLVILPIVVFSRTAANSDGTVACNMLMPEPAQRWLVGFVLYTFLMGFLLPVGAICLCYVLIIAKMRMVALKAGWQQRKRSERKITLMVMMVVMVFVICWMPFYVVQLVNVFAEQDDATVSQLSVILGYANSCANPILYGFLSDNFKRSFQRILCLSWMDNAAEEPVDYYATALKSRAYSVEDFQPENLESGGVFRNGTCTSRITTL
T1 sequence (P35346 whole entry): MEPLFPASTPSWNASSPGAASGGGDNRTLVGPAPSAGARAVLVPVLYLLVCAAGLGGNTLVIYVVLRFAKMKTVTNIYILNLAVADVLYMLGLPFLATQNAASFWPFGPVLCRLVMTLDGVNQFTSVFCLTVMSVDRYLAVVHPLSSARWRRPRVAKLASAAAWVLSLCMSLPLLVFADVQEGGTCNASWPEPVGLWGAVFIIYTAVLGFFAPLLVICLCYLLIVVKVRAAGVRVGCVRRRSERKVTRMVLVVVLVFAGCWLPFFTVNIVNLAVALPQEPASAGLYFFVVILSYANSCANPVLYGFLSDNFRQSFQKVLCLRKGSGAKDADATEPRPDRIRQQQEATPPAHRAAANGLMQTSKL
T2 sequence (P32745 whole entry): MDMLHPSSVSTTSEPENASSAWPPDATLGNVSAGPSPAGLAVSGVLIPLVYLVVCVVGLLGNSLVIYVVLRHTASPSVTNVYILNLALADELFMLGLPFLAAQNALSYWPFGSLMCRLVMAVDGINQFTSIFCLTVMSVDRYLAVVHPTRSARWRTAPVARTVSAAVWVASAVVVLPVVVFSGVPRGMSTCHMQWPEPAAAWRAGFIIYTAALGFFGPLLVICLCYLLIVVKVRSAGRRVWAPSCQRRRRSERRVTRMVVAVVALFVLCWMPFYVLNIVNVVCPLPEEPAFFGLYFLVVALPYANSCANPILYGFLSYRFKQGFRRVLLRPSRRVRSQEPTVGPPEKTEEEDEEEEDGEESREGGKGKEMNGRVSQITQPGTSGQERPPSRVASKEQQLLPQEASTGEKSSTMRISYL

Row | EC50 [1] [nM] | EC50 [2] [nM] | IC50 [3] [nM] | SMILES
1 | 0.2 | 1 | 7 | CSCC[C@H](N)C(=O)N1CCC[C@H]1C(=O)N[C@H]1CSSC[C@@H](C(=O)N[C@@H](CCCCN)C(=O)O)NC(=O)[C@H](CO)NC(=O)[C@H](CO)NC(=O)[C@H](Cc2ccccc2)NC(=O)[C@H]([C@@H](C)O)NC(=O)[C@H](CCCCN)NC(=O)[C@H](Cc2c[nH]c3ccccc23)NC(=O)[C@H](Cc2ccccc2)NC(=O)[C@H](Cc2ccccc2)NC(=O)[C@H](CC(N)=O)NC(=O)[C@H](CCCNC(=N)N)NC1=O [hCS-15] (H-MPCRNFFWKTFSSCK-OH; disulfide 3-14; N-terminus and C-terminus assumed)
2 | 0.2 | 1 | 7 | CSCC[C@H](NC(=O)[C@H](CCCNC(=N)N)NC(=O)[C@@H](N)CC(=O)O)C(=O)N1CCC[C@H]1C(=O)N[C@H]1CSSC[C@@H](C(=O)N[C@@H](CCCCN)C(=O)O)NC(=O)[C@H](CO)NC(=O)[C@H](CO)NC(=O)[C@H](Cc2ccccc2)NC(=O)[C@H]([C@@H](C)O)NC(=O)[C@H](CCCCN)NC(=O)[C@H](Cc2c[nH]c3ccccc23)NC(=O)[C@H](Cc2ccccc2)NC(=O)[C@H](Cc2ccccc2)NC(=O)[C@H](CC(N)=O)NC(=O)[C@H](CCCNC(=N)N)NC1=O [hCS-17]
